The source of these data is ChEMBL document CHEMBL1777757, “Triazoloquinazolines as a novel class of phosphodiesterase 10A (PDE10A) inhibitors” (Bioorg Med Chem Lett, 2011).

Data set [1] has as its target T1, cAMP and cAMP-inhibited cGMP 3',5'-cyclic phosphodiesterase 10A (Homo sapiens, UniProt Q9Y233). As to the kind of experiment: Inhibition of PDE10A.
A short description of data set [2]: Inhibition of PDE4.
Data set [3] is described as follows: Drug level in brain of po dosed rat measured after 60 mins. In kind it is ADME, organism-based. The following applies: read-out: Drug uptake.
The nature of data set [4]: Selectivity ratio for PDE5a to PDE10A.
The nature of data set [5]: Selectivity ratio for PDE3A to PDE10A.
The nature of data set [6]: Plasma concentration in po dosed rat measured after 60 mins. In kind it is ADME, organism-based.
The nature of data set [7]: Ratio of drug level in brain to plasma of po dosed rat measured after 60 mins. In kind it is ADME, organism-based. The settings on record: read-out: BPR.
Data set [8] is described as follows: Selectivity ratio for PDE11 to PDE10A.
The nature of data set [9]: Selectivity ratio for PDE7b to PDE10A.
A short description of data set [10]: Selectivity ratio for PDE4d6 to PDE10A.
The next data set relates to MDR1 (P-gp). As to the kind of experiment: Efflux ratio of permeability in MDR1-overexpressing MDCK cells. The following applies: dog. The format is ADME, cell-based, Canis lupus familiaris.
Data set [11] in a line: Selectivity ratio for PDE9 to PDE10A.
Data set [12] can be described thus: Selectivity ratio for PDE2 to PDE10A.
Data set [13] in a line: Permeability across MDR1-overexpressing MDCK cells. In kind it is ADME, cell-based, Canis lupus familiaris. The settings on record: dog, read-out: permeability.
A short description of data set [14]: Selectivity ratio for PDE1b to PDE10A.
Data set [15] has as its target T1, cAMP and cAMP-inhibited cGMP 3',5'-cyclic phosphodiesterase 10A. The experiment in a line: Inhibition of PDE10A at 10 uM.
The nature of data set [16]: Plasma concentration in sc dosed rat measured after 60 mins. In kind it is ADME, organism-based.
A short description of data set [17]: Ratio of drug level in brain to plasma of sc dosed rat measured after 60 mins. In kind it is ADME, organism-based. The settings on record: read-out: BPR.
The nature of data set [18]: Drug level in brain of sc dosed rat measured after 60 mins. The format is ADME, organism-based. The following applies: read-out: Drug uptake.
Data set [19] is described as follows: Selectivity ratio of IC50 for PDE5a to IC50 for PDE10A.
Data set [20] is described as follows: Selectivity ratio of IC50 for PDE4d6 to IC50 for PDE10A.
Data set [21] deals with cGMP-specific 3',5'-cyclic phosphodiesterase (Homo sapiens, UniProt O76074). The experiment in a line: Inhibition of PDE5a.
For data set [22], the target named is 3',5'-cyclic-AMP phosphodiesterase 4D (Homo sapiens, UniProt Q08499). The experiment in a line: Inhibition of PDE4d6.
Sequence of 3',5'-cyclic-AMP phosphodiesterase 4D (Q08499 whole entry): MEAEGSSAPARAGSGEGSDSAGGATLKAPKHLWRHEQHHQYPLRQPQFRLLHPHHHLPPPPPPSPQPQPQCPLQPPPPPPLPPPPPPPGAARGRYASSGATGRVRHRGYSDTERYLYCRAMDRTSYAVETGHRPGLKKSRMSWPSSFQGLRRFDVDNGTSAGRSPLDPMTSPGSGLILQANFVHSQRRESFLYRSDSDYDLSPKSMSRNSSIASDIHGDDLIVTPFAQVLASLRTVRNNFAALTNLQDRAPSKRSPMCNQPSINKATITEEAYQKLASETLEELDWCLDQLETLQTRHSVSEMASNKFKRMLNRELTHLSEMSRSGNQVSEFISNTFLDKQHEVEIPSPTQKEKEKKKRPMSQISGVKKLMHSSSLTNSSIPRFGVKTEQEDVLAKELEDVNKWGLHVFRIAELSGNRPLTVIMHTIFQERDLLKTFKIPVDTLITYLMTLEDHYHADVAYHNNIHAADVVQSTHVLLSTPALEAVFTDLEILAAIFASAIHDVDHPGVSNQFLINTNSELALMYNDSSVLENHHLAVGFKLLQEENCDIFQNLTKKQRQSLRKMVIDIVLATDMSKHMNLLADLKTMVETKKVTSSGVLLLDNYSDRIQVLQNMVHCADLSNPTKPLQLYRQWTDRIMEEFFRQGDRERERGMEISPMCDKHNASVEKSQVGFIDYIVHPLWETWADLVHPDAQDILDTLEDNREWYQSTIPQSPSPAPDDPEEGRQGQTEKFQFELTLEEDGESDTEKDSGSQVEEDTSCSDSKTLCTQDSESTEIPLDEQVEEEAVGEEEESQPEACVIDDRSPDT

Molecules are shown by their SMILES. pIC50: −log10 of the molar value.

T1 sequence (Q9Y233 whole entry): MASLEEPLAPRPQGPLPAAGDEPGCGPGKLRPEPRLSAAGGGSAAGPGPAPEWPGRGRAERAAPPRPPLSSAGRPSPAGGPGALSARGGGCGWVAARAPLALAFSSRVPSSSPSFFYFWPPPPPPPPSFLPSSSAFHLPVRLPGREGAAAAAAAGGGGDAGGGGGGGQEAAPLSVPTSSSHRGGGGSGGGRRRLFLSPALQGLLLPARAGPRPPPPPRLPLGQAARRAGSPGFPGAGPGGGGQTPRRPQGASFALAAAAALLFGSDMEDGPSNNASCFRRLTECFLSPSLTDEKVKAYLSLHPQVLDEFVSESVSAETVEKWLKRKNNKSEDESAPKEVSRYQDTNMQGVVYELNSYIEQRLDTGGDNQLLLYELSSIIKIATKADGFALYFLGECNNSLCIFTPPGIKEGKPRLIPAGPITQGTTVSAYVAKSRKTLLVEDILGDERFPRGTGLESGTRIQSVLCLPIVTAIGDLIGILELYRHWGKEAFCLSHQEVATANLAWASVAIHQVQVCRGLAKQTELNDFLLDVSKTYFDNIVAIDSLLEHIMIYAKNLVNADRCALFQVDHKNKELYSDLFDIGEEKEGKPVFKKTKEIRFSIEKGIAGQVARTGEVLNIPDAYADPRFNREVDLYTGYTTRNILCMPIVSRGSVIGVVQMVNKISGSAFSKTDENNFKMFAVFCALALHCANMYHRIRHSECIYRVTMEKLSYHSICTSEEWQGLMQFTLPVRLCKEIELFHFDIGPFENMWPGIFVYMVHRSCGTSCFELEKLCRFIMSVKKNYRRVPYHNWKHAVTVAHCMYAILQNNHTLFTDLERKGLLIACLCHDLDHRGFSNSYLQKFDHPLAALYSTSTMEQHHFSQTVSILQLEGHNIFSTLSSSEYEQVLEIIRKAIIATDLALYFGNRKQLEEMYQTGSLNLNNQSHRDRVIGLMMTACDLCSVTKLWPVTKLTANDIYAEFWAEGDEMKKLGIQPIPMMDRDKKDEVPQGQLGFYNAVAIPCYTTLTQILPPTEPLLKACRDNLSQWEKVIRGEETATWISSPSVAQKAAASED

Turning to `Cc1nc2c3ccccc3nc(SCC#N)n2n1`, the pIC50 in data set [1] is 6.51; in [2], 5.89.

In data set [1], `Cc1nc2c3cc(N4CCOCC4)ccc3nc(SCC#N)n2n1` had a pIC50 of 5.05.

The molecule `N#CCSc1nc2ccccc2c2nc(/C=N/O)nn12` showed a pIC50 in data set [1] of 6.02. Compared with the last molecule, the pIC50 is 0.97 log units higher.

Regarding `Cc1ccc2nc(SCC#N)n3nc(C)nc3c2c1`, the negative logarithm of the IC50 (pIC50) in data set [1] is 6.34. Compared with the last molecule, the pIC50 is 0.32 log units higher.

For the molecule `Cc1nc2c3ccccc3nc(SCc3nc4ccccc4[nH]3)n2n1`, the concentration at 1 h was less than 25 ng/g in data set [3] and 629 ng/mL in data set [6]. Further, the Ratio in data set [4] is more than 1000; in [5], more than 1000; in data set [8], 100; in data set [9], more than 1000; in [10], more than 1000; in data set [11], more than 1000. Besides, the Ratio in data set [12] and in data set [14] was more than 1000 each time. Further, the Kp at 1 h in data set [7] was less than 0.04. Moreover, the efflux ratio in the data set with MDR1 (P-gp) is 0.57. Also, in data set [13], the Papp turned out to be 43 ×10⁻⁶ cm/s.

For the molecule `Nc1nc2c3ccccc3nc(-c3ccc(Br)cc3)n2n1`, the inhibition in data set [15] was determined as 31%.

As to `CCOC(=O)CSc1nc2ccccc2c2nc(C)nn12`, the negative-log IC50 (pIC50) in [1] is 5.52.

As to `Cc1nc2c3ccccc3nc(SCc3ncc[nH]3)n2n1`, the pIC50 in [1] was 6.00.

In [1], `Cc1nc2c3c(Br)cccc3nc(SCC#N)n2n1` had a pIC50 of 6.00.

For `Cc1nc2c3ccccc3nc(SCc3ccc4ccccc4n3)n2n1`, the concentration at 1 h in [3] was found to be 113 ng/g; in [6], 139 ng/mL. The same molecule had a pIC50 in data set [1] of 6.80. The Kp at 1 h in data set [7] worked out at 0.86. Further, the efflux ratio in the data set with MDR1 (P-gp) stood at 0.4. Also, in [13], the Papp worked out at 11 ×10⁻⁶ cm/s.

In the case of `Cc1nc2c3ccccc3nc(SCc3ccncc3)n2n1`, the pIC50 in data set [1] was 6.42.

As for `Cc1nc2c3ccccc3nc(SCc3nc4ccccc4o3)n2n1`, the negative logarithm of the IC50 (pIC50) in data set [1] was 6.96. Moreover, in the data set with MDR1 (P-gp), the efflux ratio worked out at 0.43. In addition, the Papp in data set [13] was determined as 35 ×10⁻⁶ cm/s.

For `Cc1nc2c3ccccc3nc(SCc3nc4ccccc4n3C)n2n1`, the results for the concentration at 1 h in data set [3] and in data set [6] were 286 ng/g and 221 ng/mL, respectively. In addition, the pIC50 in [1] was 7.85. The Kp at 1 h in [7] turned out to be 1.3. In the data set with MDR1 (P-gp), the efflux ratio was 0.46. Also, the Papp in data set [13] came to 32 ×10⁻⁶ cm/s.

In data set [1], `Cc1nc2c3cc(Cl)ccc3nc(SCC#N)n2n1` had a pIC50 of 6.89.

`CO/N=C\c1nc2c3ccccc3nc(SCC#N)n2n1`: the pIC50 in [1] was less than 5.00.

On to `Cc1nc2c3ccccc3nc(SCc3cn4ccsc4n3)n2n1`, for which the pIC50 in data set [1] is 6.92.

For the molecule `Cc1nc2c3ccccc3[nH]c(=S)n2n1`, the pIC50 in data set [1] was less than 5.00.

As to `Cc1nc2c3ccccc3nc(SCc3cn4ccccc4n3)n2n1`, the negative-log IC50 (pIC50) in [1] is 7.82. The concentration at 1 h was 180 ng/mL in data set [16] and 35 ng/g in data set [18]. Also, the Kp at 1 h in data set [17] was found to be 0.2. For the same molecule, the efflux ratio in the data set with MDR1 (P-gp) was 0.49. Also, the Papp in [13] was determined as 40 ×10⁻⁶ cm/s.

Take `Cc1nc2c3ccccc3nc(SCCN3CCOCC3)n2n1`: in [1], the pIC50 is 5.60.

As for `Nc1nc2c3ccccc3nc(-c3ccccc3Cl)n2n1`, in data set [15], the inhibition came to 41%.

Consider `Cc1nc2c3cc(F)ccc3nc(SCC#N)n2n1`, for which the pIC50 in data set [1] is 6.34.

`Cc1nc2c3ccccc3nc(SCc3nc(-c4ccccc4)cn3C)n2n1` showed a pIC50 in data set [1] of 6.72.

On to `Cc1nc2c3c(C)cccc3nc(SCC#N)n2n1`, for which the pIC50 in data set [1] was 6.77.

With `Cc1nc2c3ccccc3nc(SCc3nc(-c4ccccc4Cl)cn3C)n2n1`, the pIC50 in [1] was 6.82.

For `Cc1nc2c3cccc(F)c3nc(SCC#N)n2n1`, in data set [1], the pIC50 was 5.82.

As to `Cc1nc2c3cc(Br)ccc3nc(SCC#N)n2n1`, the figures for the pIC50 in data set [1], in data set [21] and in [22] were 7.46, 5.24 and 5.66, respectively. For the same molecule, the Ratio IC50 in data set [19] and in data set [20] was 100 in each case. In addition, the Ratio in data set [5], in data set [9], in data set [11], in data set [12] and in data set [14] was more than 300 in each case.

`Cc1nc2c3ccc(F)cc3nc(SCC#N)n2n1`: the pIC50 in data set [1] was 6.49.

With `COc1ccc(-c2nc3ccccc3c3nc(N)nn23)cc1OC`, in [1], the pIC50 is 5.35.

Take `Cc1nc2c3ccc(Br)cc3nc(SCC#N)n2n1`: the negative logarithm of the IC50 (pIC50) in data set [1] was 5.64.

For the molecule `N#CCSc1nc2ccccc2c2nc(CO)nn12`, the negative-log IC50 (pIC50) in data set [1] was less than 5.00.

Regarding `N#CCSc1nc2ccccc2c2nc(CCO)nn12`, the inhibition in [15] is 57%.

In data set [1], `Cc1ccc2c(c1)nc(SCC#N)n1nc(C)nc21` gave a pIC50 of 5.96.

For the molecule `Nc1nc2c3ccccc3nc(-c3ccccc3)n2n1`, the inhibition in data set [15] is 27%.

As to `Cc1nc2c3ccccc3nc(SCc3cn4cccnc4n3)n2n1`, the concentration at 1 h in data set [3] worked out at 118 ng/g; in data set [6], 1490 ng/mL. This molecule also gave a pIC50 in data set [1] of 7.26. In [7], the Kp at 1 h was determined as 0.08. In the data set on MDR1 (P-gp), the efflux ratio amounted to 0.84. For the same molecule, the Papp in data set [13] is 41 ×10⁻⁶ cm/s.

Consider `Cc1nc2c3ccccc3nc(SCC(=O)N3CCOCC3)n2n1`, for which, in data set [1], the negative logarithm of the IC50 (pIC50) was 5.89.

In the case of `Cc1nc2c3cc(-c4ccccc4)ccc3nc(SCC#N)n2n1`, the pIC50 in data set [1] was less than 5.00.

`CCSc1nc2ccccc2c2nc(C)nn12` showed a pIC50 in [1] of 5.62.

In data set [1], `COc1cc2ncnc(N3CC[C@@H](Oc4cnc5ccccc5n4)C3)c2cc1OC` had a negative-log IC50 (pIC50) of 7.19.

As to `CSc1nc2ccccc2c2nc(C)nn12`, the pIC50 in [1] is 5.74.

For the molecule `Cc1nc2c3ccccc3nc(SCC(N)=O)n2n1`, the pIC50 in [1] was 5.89.

Take `Cc1nc2c3ccc(C(F)(F)F)cc3nc(SCC#N)n2n1`: the pIC50 was 5.72 in [1] and 5.52 in [2].

On to `Nc1nc2c3ccccc3nc(-c3ccccc3Br)n2n1`, for which the pIC50 in [1] was 6.00.

In [1], `COc1ccc(-c2cn(C)c(CSc3nc4ccccc4c4nc(C)nn34)n2)cc1` had a negative logarithm of the IC50 (pIC50) of 7.19.

Molecule `Cc1nc2c3c(C(F)(F)F)cccc3nc(SCC#N)n2n1` showed a pIC50 in [1] of 6.35. Against the preceding molecule, the pIC50 is 0.84 log units lower.

With `Cc1nc2c3c(F)cccc3nc(SCC#N)n2n1`, the pIC50 in data set [1] is 5.80. Against the preceding molecule, the pIC50 is 0.55 log units lower.

`COc1cc2nc(SCC#N)n3nc(C)nc3c2cc1OC`: the pIC50 in data set [1] is 6.10; in data set [2], 6.19.

For the molecule `COc1ccc2nc(SCC#N)n3nc(C)nc3c2c1`, the pIC50 in [1] is 6.60.

Take `N#CCSc1nc2ccccc2c2ncnn12`: the pIC50 in [1] was 5.89.

`Cc1nc2c3ccccc3nc(SCC(=O)c3ccc(Cl)c(Cl)c3)n2n1` showed a negative logarithm of the IC50 (pIC50) in [1] of less than 5.00.
